Laboratory results taken from US7932262B2 (Novartis AG, priority 2006, dated 2011).
pEC50, pIC50: −log10 of the molar value. Where two headings read alike, the source gives them in different places.

Columns and labels:
PDK1 kinase = target: T1, PDK1 kinase (Homo sapiens, UniProt O15530); assay: PDK1 Kinase Alpha Screen Assay; format: biochemical; settings: read-out: PDK1 IC50
T1 sequence (O15530 1-556): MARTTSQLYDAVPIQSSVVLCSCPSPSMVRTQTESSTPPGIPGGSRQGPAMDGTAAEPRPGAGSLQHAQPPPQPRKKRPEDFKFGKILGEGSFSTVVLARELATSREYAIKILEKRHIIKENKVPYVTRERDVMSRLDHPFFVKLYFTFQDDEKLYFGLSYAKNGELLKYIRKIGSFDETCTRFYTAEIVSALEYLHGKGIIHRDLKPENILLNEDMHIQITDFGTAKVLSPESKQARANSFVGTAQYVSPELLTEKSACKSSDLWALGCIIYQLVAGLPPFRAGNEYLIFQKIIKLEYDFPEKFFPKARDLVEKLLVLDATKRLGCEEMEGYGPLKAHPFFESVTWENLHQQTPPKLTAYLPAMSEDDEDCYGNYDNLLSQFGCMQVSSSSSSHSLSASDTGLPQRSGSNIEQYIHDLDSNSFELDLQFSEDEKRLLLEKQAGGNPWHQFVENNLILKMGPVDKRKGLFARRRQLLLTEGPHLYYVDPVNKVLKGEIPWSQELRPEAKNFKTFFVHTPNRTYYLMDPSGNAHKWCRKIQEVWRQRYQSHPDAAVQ
Outline: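 Test compounds were incubated with PDK1 kinase, 10 uM ATP and 50 nM biotinylated peptide substrate for 3-18 hours at pH 7.5 with 2.5% DMSO. Peptide phosphorylation was then detected by AlphaScreen proximity luminescence using a phospho-(Ser/Thr) PKA substrate antibody.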

PC-3 cells = assay: Cell Proliferation Assay (Cell Titer Glo), PC-3 cell line; format: cell-based
Outline: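 PC-3 cells, 1000 cells/well, left to adhere 3-5 h, then exposed for 3 days at 37° C to compounds as 1:3 serial dilutions from 500× DMSO stocks diluted in growth medium. Medium then replaced with fresh medium and viability read by Cell Titer Glo luminescence.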

[1] = Homo sapiens, PC-3, PC3 cells, read-out: CPEC50 PC3
[2] = Homo sapiens, PC-3, Cell Proliferation Assay, PC3, read-out: CPEC50 PC3
[3] = Homo sapiens, PC-3, 72 h, PC-3 cells, 3 days incubation, read-out: CP EC50 PC3

SMILES	pIC50 (PDK1 kinase; PDK1 Kinase Alpha Screen Assay)	pEC50 (PC-3 cells; [2])	other results
CN1CCN(c2ccc(-c3cccc4cnc(Nc5ccc(S(=O)(=O)N6CCOCC6)cc5)nc34)cn2)CC1 [Compound 1029, 8-(6-(4-methylpiperazin-1-yl)pyridin-3-yl)-N-(4-(morpholinosulfonyl)phenyl)quinazolin-2-amine]			pIC50 (PDK1 kinase): > 5.30; pEC50 (PC-3 cells; [1]): > 5.30
CN1CCN(c2ccc(-c3cccc4cnc(Nc5cc(C(=O)O)cc(C(F)(F)F)c5)nc34)cn2)CC1 [Compound 467, 3-(8-(6-(4-methylpiperazin-1-yl)pyridin-3-yl)quinazolin-2-ylamino)-5-(trifluoromethyl)benzoic acid]	> 5.30	> 5.30	
c1ccc(Nc2ncc3cccc(-c4ccc(NCCN5CCCC5)nc4)c3n2)cc1 [Compound 426, N-phenyl-8-(6-(2-(pyrrolidin-1-yl)ethylamino)pyridin-3-yl)quinazolin-2-amine]	> 5.30	> 5.30	
CC(=O)N1CCN(Cc2cncc(-c3cccc4cnc(Nc5ccc(S(N)(=O)=O)cc5)nc34)c2)CC1 [Compound 949, 4-(8-(5-((4-acetylpiperazin-1-yl)methyl)pyridin-3-yl)quinazolin-2-ylamino)benzenesulfonamide]			pIC50 (PDK1 kinase): > 5.30; pEC50 (PC-3 cells; [1]): 5.00 to 5.30
CC(C)N1CCC(Oc2cccc3cnc(Nc4cc(F)cc(F)c4)nc23)CC1 [Compound 533, N-(3,5-difluorophenyl)-8-(1-isopropylpiperidin-4-yloxy)quinazolin-2-amine]	> 5.30	> 5.30	
CC(C)N1CCC(Oc2cccc3cnc(Nc4cccc(NC(=O)N5CCCC5)c4)nc23)CC1 [Compound 525, N-(3-(8-(1-isopropylpiperidin-4-yloxy)quinazolin-2-ylamino)phenyl)pyrrolidine-1-carboxamide]	> 5.30	> 5.30	
NS(=O)(=O)c1ccc(Nc2ncc3ccccc3n2)cc1 [Compound 618, 4-(quinazolin-2-ylamino)benzenesulfonamide]	> 5.30	5.00 to 5.30	
O=C(c1ccc(Nc2ncc3c(Br)ccc(OC4CCNCC4)c3n2)cc1)N1CCOCC1 [Compound 438, (4-(5-bromo-8-(piperidin-4-yloxy)quinazolin-2-ylamino)phenyl)(morpholino)methanone]	> 5.30	> 5.30	
CC(C)NC(=O)c1ccc(Nc2ncc3ccc(NC4CCN(C)CC4)cc3n2)cc1 [Compound 354, N-isopropyl-4-(7-(1-methylpiperidin-4-ylamino)quinazolin-2-ylamino)benzamide]	> 5.30	> 5.30	
COc1cccc(Nc2ncc3ccc(OC4CCN(C(C)C)CC4)cc3n2)c1 [Compound 576, 7-(1-isopropylpiperidin-4-yloxy)-N-(3-methoxyphenyl)quinazolin-2-amine]	> 5.30	5.00 to 5.30	
CC(C)NC(=O)c1cc(Nc2ncc3cccc(OC4CCNCC4)c3n2)ccc1F [Compound 474, 2-fluoro-N-isopropyl-5-(8-(piperidin-4-yloxy)quinazolin-2-ylamino)benzamide]	> 5.30	> 5.30	
CC(C)N1CCC(Oc2cccc3cnc(Nc4ccccc4F)nc23)CC1 [Compound 532, N-(2-fluorophenyl)-8-(1-isopropylpiperidin-4-yloxy)quinazolin-2-amine]	5.00 to 5.30	5.00 to 5.30	
Cc1ccc(OC2CCNCC2)c2nc(Nc3ccc(C(=O)N4CCOCC4)cc3)ncc12 [Compound 356, (4-(5-methyl-8-(piperidin-4-yloxy)quinazolin-2-ylamino)phenyl)(morpholino)methanone]	> 5.30	5.00 to 5.30	
c1cc(N2CCOCC2)ccc1Nc1ncc2cc(C3CC3)c(OC3CCNCC3)cc2n1 [Compound 643, 6-cyclopropyl-N-(4-morpholinophenyl)-7-(piperidin-4-yloxy)quinazolin-2-amine]	> 5.30	> 5.30	
FC(F)(F)c1ccc(OC2CCNCC2)c2nc(Nc3ccc(N4CCOCC4)cc3)ncc12 [Compound 502, N-(4-morpholinophenyl)-8-(piperidin-4-yloxy)-5-(trifluoromethyl)quinazolin-2-amine]	> 5.30		pEC50 (PC-3 cells; Cell Proliferation Assay, PC3, read-out: CPEC50 PC3): > 5.30
C#Cc1cc(-c2ccc(NCCN3CCCC3)nc2)c2nc(Nc3ccc(S(N)(=O)=O)cc3)ncc2c1 [Compound 634, 4-(6-ethynyl-8-(6-(2-(pyrrolidin-1-yl)ethylamino)pyridin-3-yl)quinazolin-2-ylamino)benzenesulfonamide]	> 5.30	> 5.30	
NS(=O)(=O)c1ccc(Nc2ncc3c(Br)ccc(OC4CCNCC4)c3n2)cc1 [Compound 429, 4-(5-bromo-8-(piperidin-4-yloxy)quinazolin-2-ylamino)benzenesulfonamide]	> 5.30	5.00 to 5.30	
CN(C)[C@H]1CCN(c2ccc(-c3cccc4cnc(Nc5ccc(S(N)(=O)=O)cc5)nc34)cn2)C1 [Compound 952, (S)-4-(8-(6-(3-(dimethylamino)pyrrolidin-1-yl)pyridin-3-yl)quinazolin-2-ylamino)benzenesulfonamide]			pIC50 (PDK1 kinase): > 5.30; pEC50 (PC-3 cells; [1]): > 5.30
CC(C)NC(=O)Cc1cccc(Nc2ncc3cccc(OC4CCN(C(C)C)CC4)c3n2)c1 [Compound 79, N-Isopropyl-2-{3-[8-(1-isopropyl-piperidin-4-yloxy)-quinazolin-2-ylamino]-phenyl}-acetamide]			pIC50 (PDK1 kinase): > 5.30; pEC50 (PC-3 cells; [3]): > 5.30
Clc1cc(Nc2ncc3c(Br)ccc(OC4CCNCC4)c3n2)ccc1N1CCOCC1 [Compound 338, 5-bromo-N-(3-chloro-4-morpholinophenyl)-8-(piperidine-4-yloxy) quinazolin-2-amine]	> 5.30	> 5.30	
CN1CCN(C(=O)c2cc(F)cc(Nc3ncc4cccc(OC5CCNCC5)c4n3)c2)CC1 [Compound 463, (3-fluoro-5-(8-(piperidin-4-yloxy)quinazolin-2-ylamino)phenyl)(4-methylpiperazin-1-yl)methanone]	> 5.30	> 5.30	
NS(=O)(=O)c1ccc(Nc2ncc3cc(C(F)(F)F)cc(-c4ccc(NCCN5CCCC5)nc4)c3n2)cc1 [Compound 963, 4-(8-(6-(2-(pyrrolidin-1-yl)ethylamino)pyridin-3-yl)-6-(trifluoromethyl)quinazolin-2-ylamino)benzenesulfonamide]			pIC50 (PDK1 kinase): > 5.30; pEC50 (PC-3 cells; [1]): > 5.30
NS(=O)(=O)c1ccc(Nc2ncc3cc(Cl)cc(-c4ccc(NCCN5CCCC5)nc4)c3n2)cc1 [Compound 927, 4-(6-choro-8-(6-(2-(pyrrolidin-1-yl)ethylamino)pyridin-3-yl)quinazolin-2-ylamino)benzenesulfonamide]			pIC50 (PDK1 kinase): > 5.30; pEC50 (PC-3 cells; [1]): > 5.30
CN1CCN(c2ccc(-c3cccc4cnc(Nc5cc(C(=O)N6CCCC6)cc(C(F)(F)F)c5)nc34)cn2)CC1 [Compound 468, (3-(8-(6-(4-methylpiperazin-1-yl)pyridin-3-yl)quinazolin-2-ylamino)-5-(trifluoromethyl)phenyl)(pyrrolidin-1-yl)methanone]	5.00 to 5.30	> 5.30	
O=S(=O)(c1cccc(Nc2ncc3c(Cl)ccc(OC4CNC4)c3n2)c1)N1CCOCC1 [Compound 616, 8-(azetidin-3-yloxy)-5-chloro-N-(3-(morpholinosulfonyl)phenyl)quinazolin-2-amine]	> 5.30	> 5.30	
CC(C)NC(=O)c1ccc(Nc2ncc3cc(-c4nccs4)c(OC4CCN(C(C)C)CC4)cc3n2)cc1 [Compound 638, N-isopropyl-4-(7-(1-isoproylpiperidin-4-yloxy)-6-(thiazol-2-yl)quinazolin-2-ylamino)benzamide]	> 5.30	> 5.30	
CC(C)N1CCC(Oc2cccc3cnc(Nc4ccc(CC(N)=O)cc4)nc23)CC1 [Compound 74, 2-{4-[8-(1-Isopropyl-piperidin-4-yloxy)-quinazolin-2-ylamino]-phenyl}-acetamide]			pIC50 (PDK1 kinase): > 5.30; pEC50 (PC-3 cells; [3]): > 5.30
Fc1cc(Nc2ncc3c(Br)ccc(OC4CCNCC4)c3n2)ccc1N1CCOCC1 [Compound 339, 5-bromo-N-(3-fluoro-4-morpholinophenyl)-8-(piperidin-4-yloxy)quinazolin-2-amine]	> 5.30	> 5.30	
N#Cc1cc2cnc(Nc3ccc(C(=O)N4CCOCC4)cc3)nc2cc1OC1CCNCC1 [Compound 640, 2-(4-(morpholine-4-carbonyl)phenylamino)-7-(piperidin-4-yloxy)quinazoline-6-carbonitrile]	> 5.30	> 5.30	
N#Cc1cccc(Nc2ncc3cccc(-c4ccc(NCCN5CCCC5)nc4)c3n2)c1 [Compound 397, 3-(8-(6-(2-(pyrrolidin-1-yl)ethylamino)pyridin-3-yl)quinazolin-2-ylamino)benzonitrile]	> 5.30	> 5.30	
